# According to patent publication US5872107A, “Treatment of urogenital cancer with boron neutron capture therapy” (Emory University, priority 1997, dated 1999):
# Assays:
# [1] = Toxicity study: weight change and survival of normal Swiss mice; assay type: in vivo, Swiss female mice; settings: 30 mg/kg/day i.p.
# Method: A toxicity study was conducted on 6-week-old Swiss female mice treated with CDU and CFAU at 30 mg/kg/day. The compounds were prepared in sterile DMSO and injected intraperitoneally (0.1 mL). DMSO and water were used as controls, with the same injection volume as that used for the CDU and CFAU solutions. The dosing schedule used was once a day for 6 days, and the mice were weighed biweekly for 28 days. Results shown in Table 3 somewhat correlate with the cytotoxicity assays in vitro.
# [2] = typical nucleoside analogues; cited from earlier work
compound,measurement,setting,value
5-o-carboranyl-1-(2-deoxy-2-fluoro-β-D-arabinofuranosyl)uracil [CFAU],weight loss after 1 week (in words),[1]; CFAU and CDU compared,comparable weight loss after 1 week
same,relative toxicity as monitored by survival outcome (in words),[1]; CFAU versus CDU,more toxic than CDU
same,day of death of mouse,[1]; one mouse of five,7 days
same,weight recovery at 4 weeks (in words),[1]; surviving animals,all the surviving animals recovered their weight loss to control untreated levels
same,% of weight gained or lost on week 1,"[1]; week 1, once a day for 6 days",-6.8%
same,% of weight gained or lost on week 2,"[1]; week 2, once a day for 6 days",-0.4%
same,% of weight gained or lost on week 3,"[1]; week 3, once a day for 6 days",5.0%
same,% of weight gained or lost on week 4,"[1]; week 4, once a day for 6 days",9.6%
same,"survival at week 4, alive/total","[1]; week 4, once a day for 6 days",4/5
same,survival at week 4 (%),"[1]; week 4, once a day for 6 days, 40320 min",80%
"Cc1cn([C@H]2C[C@H](N=[N+]=[N-])[C@@H](CO)O2)c(=O)[nH]c1=O [AZT, 3'-azido-3'-deoxythymidine]",reabsorption by the renal tubule (in words),[2],not reabsorbed appreciably by the renal tubule
"[N-]=[N+]=N[C@H]1C[C@H](n2ccc(=O)[nH]c2=O)O[C@@H]1CO [AZddU, 3'-azido-2',3'-dideoxyuridine]",reabsorption by the renal tubule (in words),[2],not reabsorbed appreciably by the renal tubule
